In paper PMC9848300, “Discovery of novel enasidenib analogues targeting inhibition of mutant isocitrate dehydrogenase 2 as antileukaemic agents” (Journal of Enzyme Inhibition and Medicinal Chemistry, 2023):

Tests used:
[1] = system: HL-60(TB); assay: NCI 60 antitumor screening (single dose / five doses); type: cell-based; conditions: Homo sapiens; for inhibition at 10 µM: HL-60(TB) (leukaemia), single dose 10 μM, read-out: Growth inhibition percentage (GI %)
[2] = system: K-562; assay: as above; type: cell-based; conditions: Homo sapiens, K562; for inhibition at 10 µM: K-562 (leukaemia), single dose 10 μM, read-out: Growth inhibition percentage (GI %)
[3] = system: HOP-92; assay: as above; type: cell-based; conditions: Homo sapiens; for inhibition at 10 µM: HOP-92 (non-small cell lung cancer), single dose 10 μM, read-out: Growth inhibition percentage (GI %)
[4] = system: MCF7; assay: NCI 60 antitumor screening (single dose); type: cell-based; conditions: Homo sapiens; MCF7 (breast cancer), single dose 10 μM; read-out: Growth inhibition percentage (GI %)
Summary of the method: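 Percent growth inhibition, calculated as 100 minus percent growth (G%) of treated cells, following a single 10 μM exposure in the NCI 60 human cancer cell screen; triplicate runs.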

[5] = system: SF-268; assay: NCI 60 antitumor screening (single dose); type: cell-based; conditions: Homo sapiens; SF-268 (CNS cancer), single dose 10 μM; read-out: Growth inhibition percentage (GI %)
Summary of the method: (§1)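 The panel mean likewise comes from single-dose (10 μM) NCI 60-line testing, with inhibition expressed as 100 − G%.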

[6] = system: COLO 205; assay: NCI 60 antitumor screening (single dose / five doses); type: cell-based; conditions: Homo sapiens; for inhibition at 10 µM: COLO 205 (colon cancer), single dose 10 μM, read-out: Growth inhibition percentage (GI %)
[7] = system: HCT-116; assay: as above; type: cell-based; conditions: Homo sapiens; for inhibition at 10 µM: HCT-116 (colon cancer), single dose 10 μM, read-out: Growth inhibition percentage (GI %)
[8] = system: HCT-15; assay: as above; type: cell-based; conditions: Homo sapiens; for inhibition at 10 µM: HCT-15 (colon cancer), single dose 10 μM, read-out: Growth inhibition percentage (GI %)
[9] = system: HT29; assay: as above; type: cell-based, human; conditions: Homo sapiens; for inhibition at 10 µM: HT-29, HT29 (colon cancer), single dose 10 μM, read-out: Growth inhibition percentage (GI %)
[10] = system: SF-539; assay: as above; type: cell-based; conditions: Homo sapiens; for inhibition at 10 µM: SF-539 (CNS cancer), single dose 10 μM, read-out: Growth inhibition percentage (GI %)
[11] = system: SNB-75; assay: as above; type: cell-based; conditions: Homo sapiens; for inhibition at 10 µM: SNB-75 (CNS cancer), single dose 10 μM, read-out: Growth inhibition percentage (GI %)
[12] = system: LOX IMVI; assay: as above; type: cell-based; conditions: Homo sapiens; for inhibition at 10 µM: LOX IMVI (melanoma), single dose 10 μM, read-out: Growth inhibition percentage (GI %)
[13] = system: MDA-MB-435; assay: as above; type: cell-based; conditions: Homo sapiens; for inhibition at 10 µM: MDA-MB-435 (melanoma), single dose 10 μM, read-out: Growth inhibition percentage (GI %)
[14] = system: SK-MEL-2; assay: as above; type: cell-based; conditions: Homo sapiens; for inhibition at 10 µM: SK-MEL-2 (melanoma), single dose 10 μM, read-out: Growth inhibition percentage (GI %)
[15] = system: SK-MEL-28; assay: as above; type: cell-based; conditions: Homo sapiens; for inhibition at 10 µM: SK-MEL-28 (melanoma), single dose 10 μM, read-out: Growth inhibition percentage (GI %)
[16] = system: UACC-257; assay: as above; type: cell-based; conditions: Homo sapiens; for inhibition at 10 µM: UACC-257 (melanoma), single dose 10 μM, read-out: Growth inhibition percentage (GI %)
[17] = system: UACC-62; assay: as above; type: cell-based; conditions: Homo sapiens; for inhibition at 10 µM: UACC-62 (melanoma), single dose 10 μM, read-out: Growth inhibition percentage (GI %)
[18] = system: IGROV1; assay: as above; type: cell-based; conditions: Homo sapiens, IGROV-1; for inhibition at 10 µM: IGROV1 (ovarian cancer), single dose 10 μM, read-out: Growth inhibition percentage (GI %)
[19] = system: 786-0; assay: as above; type: cell-based; conditions: Homo sapiens; for inhibition at 10 µM: 786-0, 786-0 (renal cancer), single dose 10 μM, read-out: Growth inhibition percentage (GI %)
[20] = system: A498; assay: as above; type: cell-based; conditions: Homo sapiens; for inhibition at 10 µM: A498 (renal cancer), single dose 10 μM, read-out: Growth inhibition percentage (GI %)
[21] = system: ACHN; assay: as above; type: cell-based; conditions: Homo sapiens; for inhibition at 10 µM: ACHN (renal cancer), single dose 10 μM, read-out: Growth inhibition percentage (GI %)
[22] = system: RXF 393; assay: as above; type: cell-based; conditions: Homo sapiens; for inhibition at 10 µM: RXF 393 (renal cancer), single dose 10 μM, read-out: Growth inhibition percentage (GI %)
[23] = system: SN 12C; assay: as above; type: cell-based; conditions: Homo sapiens, SN12C; for inhibition at 10 µM: SN 12C (renal cancer), single dose 10 μM, read-out: Growth inhibition percentage (GI %)
[24] = system: UO-31; assay: as above; type: cell-based; conditions: Homo sapiens; for inhibition at 10 µM: UO-31 (renal cancer), single dose 10 μM, read-out: Growth inhibition percentage (GI %)
[25] = system: DU-145; assay: as above; type: cell-based; conditions: Homo sapiens; for inhibition at 10 µM: DU-145 (prostate cancer), single dose 10 μM, read-out: Growth inhibition percentage (GI %)
[26] = system: MDA-MB-231/ATCC; assay: as above; type: cell-based; conditions: Homo sapiens; for inhibition at 10 µM: MDA-MB-231/ATCC (breast cancer), single dose 10 μM, read-out: Growth inhibition percentage (GI %)
[27] = system: BT-549; assay: as above; type: cell-based; conditions: Homo sapiens; for inhibition at 10 µM: BT-549 (breast cancer), single dose 10 μM, read-out: Growth inhibition percentage (GI %)
[28] = system: T-47D; assay: as above; type: cell-based; conditions: Homo sapiens, T47D; for inhibition at 10 µM: T-47D (breast cancer), single dose 10 μM, read-out: Growth inhibition percentage (GI %)
[29] = system: 60 human subpanel cancer cell lines; assay: NCI 60 antitumor screening, mean over the panel (single dose); type: cell-based; conditions: mean over 60 cancer cell lines, single dose 10 μM
Summary of the method: as §1

## CN(C)c1ccc(/C=N/Nc2nc(N/N=C/c3ccc(N(C)C)cc3)nc(N3CCCCC3)n2)cc1 [compound 7g, 4-[(1e)-(2-{4-[(E)-2-{[4-(dimethylamino)phenyl]methylidene}chydrazin-1-yl]-6-(piperidin-1-yl)-1,3,5-triazin-2-yl}hydrazin-1-ylidene)methyl]-N,N-dimethylaniline]
[1]
  inhibition at 10 µM: 138%
[1]; HL-60(TB), five doses (0.01–100 μM), read-out: GI50
  GI50: 2.2 µM
[2]
  inhibition at 10 µM: 96.9%
[2]; K-562, five doses (0.01–100 μM), read-out: GI50
  GI50: 0.89 µM
[3]
  inhibition at 10 µM: 16%
[3]; HOP-92, five doses (0.01–100 μM), read-out: GI50
  GI50: 1.47 µM
[4]
  inhibition at 10 µM: 68.9%
[5]
  inhibition at 10 µM: -5.33%
[6]
  inhibition at 10 µM: 16.5%
[6]; COLO 205, five doses (0.01–100 μM), read-out: GI50
  GI50: 1.89 µM
[7]
  inhibition at 10 µM: 85.1%
[7]; HCT-116, five doses (0.01–100 μM), read-out: GI50
  GI50: 1.64 µM
[8]
  inhibition at 10 µM: 99.9%
[8]; HCT-15, five doses (0.01–100 μM), read-out: GI50
  GI50: 1.87 µM
[9]; HT-29, HT29, five doses (0.01–100 μM), read-out: GI50
  GI50: 1.76 µM
[9]
  inhibition at 10 µM: 105%
[10]
  inhibition at 10 µM: 112%
[10]; SF-539, five doses (0.01–100 μM), read-out: GI50
  GI50: 1.99 µM
[11]
  inhibition at 10 µM: -1.39%
[11]; SNB-75, five doses (0.01–100 μM), read-out: GI50
  GI50: 2.8 µM
[12]
  inhibition at 10 µM: 173%
[12]; LOX IMVI, five doses (0.01–100 μM), read-out: GI50
  GI50: 1.61 µM
[13]
  inhibition at 10 µM: 39.6%
[13]; MDA-MB-435, five doses (0.01–100 μM), read-out: GI50
  GI50: 1.94 µM
[14]
  inhibition at 10 µM: -10.8%
[14]; SK-MEL-2, five doses (0.01–100 μM)
  GI50: 1.99 µM
[15]
  inhibition at 10 µM: 58.3%
[15]; SK-MEL-28, five doses (0.01–100 μM), read-out: GI50
  GI50: 2 µM
[16]
  inhibition at 10 µM: -4.45%
[16]; UACC-257, five doses (0.01–100 μM), read-out: GI50
  GI50: 1.83 µM
[17]
  inhibition at 10 µM: -0.61%
[17]; UACC-62, five doses (0.01–100 μM), read-out: GI50
  GI50: 1.84 µM
[18]
  inhibition at 10 µM: 6.23%
[18]; IGROV1, five doses (0.01–100 μM), read-out: GI50
  GI50: 2.96 µM
[19]
  inhibition at 10 µM: 11.8%
[19]; 786-0, five doses (0.01–100 μM), read-out: GI50
  GI50: 1.69 µM
[20]
  inhibition at 10 µM: -15.1%
[20]; A498, five doses (0.01–100 μM), read-out: GI50
  GI50: 1.58 µM
[21]
  inhibition at 10 µM: 67.6%
[21]; ACHN, five doses (0.01–100 μM), read-out: GI50
  GI50: 2.68 µM
[22]
  inhibition at 10 µM: 6.71%
[22]; RXF 393, five doses (0.01–100 μM), read-out: GI50
  GI50: 2.12 µM
[23]
  inhibition at 10 µM: 49.6%
[23]; SN 12C, five doses (0.01–100 μM), read-out: GI50
  GI50: 1.87 µM
[24]
  inhibition at 10 µM: 19.7%
[24]; UO-31, five doses (0.01–100 μM), read-out: GI50
  GI50: 1.72 µM
[25]
  inhibition at 10 µM: 22.5%
[25]; DU-145, five doses (0.01–100 μM), read-out: GI50
  GI50: 3.92 µM
[26]; MDA-MB-231/ ATCC, five doses (0.01–100 μM), read-out: GI50
  GI50: 1.8 µM
[26]
  inhibition at 10 µM: 31.4%
[27]
  inhibition at 10 µM: -10.6%
[27]; BT-549, five doses (0.01–100 μM), read-out: GI50
  GI50: 1.55 µM
[28]
  inhibition at 10 µM: 54%
[28]; T-47D, five doses (0.01–100 μM), read-out: GI50
  GI50: 2.18 µM
[29]
  Mean GI %: 35.10%

## Clc1cccc(/C=N/Nc2nc(N/N=C/c3cccc(Cl)c3Cl)nc(N3CCCCC3)n2)c1Cl [compound 7h, 2,4-Bis[(E)-2-[(2,3-Dichlorophenyl)methylidene]hydrazin-1-yl]-6-(piperidin-1-yl)-1,3,5-triazine]
[1]
  inhibition at 10 µM: -6.32%
[2]
  inhibition at 10 µM: 21.9%
[3]
  inhibition at 10 µM: 13.8%
[4]
  inhibition at 10 µM: 28.8%
[5]
  inhibition at 10 µM: 13.6%
[6]
  inhibition at 10 µM: 9.72%
[7]
  inhibition at 10 µM: 51.2%
[8]
  inhibition at 10 µM: 34.5%
[9]
  inhibition at 10 µM: 15.7%
[10]
  inhibition at 10 µM: 15.7%
[11]
  inhibition at 10 µM: -4.05%
[12]
  inhibition at 10 µM: 31.7%
[13]
  inhibition at 10 µM: -13.8%
[14]
  inhibition at 10 µM: 2.27%
[15]
  inhibition at 10 µM: 5.78%
[16]
  inhibition at 10 µM: 10.2%
[17]
  inhibition at 10 µM: 31.7%
[18]
  inhibition at 10 µM: 20.4%
[19]
  inhibition at 10 µM: -1.71%
[20]
  inhibition at 10 µM: 7.46%
[21]
  inhibition at 10 µM: 16.3%
[22]
  inhibition at 10 µM: -11.8%
[23]
  inhibition at 10 µM: 19.3%
[24]
  inhibition at 10 µM: 6.76%
[25]
  inhibition at 10 µM: 26.6%
[26]
  inhibition at 10 µM: 15.8%
[27]
  inhibition at 10 µM: 2.7%
[28]
  inhibition at 10 µM: 51.7%
[29]
  Mean GI %: 18.81%
